{
  "source": "patent US20230083015A1",
  "about": "“SMALL MOLECULE DEGRADERS OF STAT3” (THE REGENTS OF THE UNIVERSITY OF MICHIGAN, priority 2019, published 2023)",
  "assay_type_in_all_cases": "cell-based",
  "key": {"[1]": {"system": "ALCL and AML cell lines expressing high levels of STAT3", "assay": "Cell growth inhibition in ALCL and AML cell lines", "from_the_text": "FIG. 12 is a table showing that Cpd."}, "mutated STAT3 proteins": {"molecular_target": "T1, mutated STAT3 proteins (Homo sapiens, UniProt P40763, Y705F)", "T1 construct": "endogenous in cells; host or cells: DLD-1 (Y705F)", "T1 sequence (P40763 2-770 Y705F)": "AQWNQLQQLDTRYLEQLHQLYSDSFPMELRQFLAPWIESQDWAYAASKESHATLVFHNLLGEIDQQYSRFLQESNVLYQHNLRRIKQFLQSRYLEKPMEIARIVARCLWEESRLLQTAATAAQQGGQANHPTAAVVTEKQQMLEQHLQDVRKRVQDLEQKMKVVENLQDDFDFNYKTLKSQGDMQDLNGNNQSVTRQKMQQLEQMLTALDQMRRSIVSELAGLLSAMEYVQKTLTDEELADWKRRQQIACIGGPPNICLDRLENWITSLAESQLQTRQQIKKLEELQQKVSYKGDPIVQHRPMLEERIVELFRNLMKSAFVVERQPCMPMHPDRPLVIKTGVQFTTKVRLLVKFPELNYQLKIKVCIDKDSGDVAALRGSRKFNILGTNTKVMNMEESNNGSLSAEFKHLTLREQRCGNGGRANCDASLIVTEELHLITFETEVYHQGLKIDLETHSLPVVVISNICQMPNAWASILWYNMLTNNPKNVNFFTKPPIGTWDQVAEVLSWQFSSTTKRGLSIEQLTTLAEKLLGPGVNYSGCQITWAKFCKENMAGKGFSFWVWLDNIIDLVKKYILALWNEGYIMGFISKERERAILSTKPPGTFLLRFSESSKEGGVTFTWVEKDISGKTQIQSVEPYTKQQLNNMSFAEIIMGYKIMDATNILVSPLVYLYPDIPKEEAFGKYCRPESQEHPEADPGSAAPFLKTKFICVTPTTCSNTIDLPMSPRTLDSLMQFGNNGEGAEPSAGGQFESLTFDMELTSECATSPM", "assay": "Western blotting of total STAT3 and p-STAT3 (Y705) in DLD-1 and DLD-1 (Y705F) cells", "procedure": "FIG. 9 is an image showing the Western blotting analysis of total STAT3 protein and phosphorylated STAT3 (Y705) in DLD-1 and DLD-1 (Y705F) cells treated with Cpd.\n(§1) In vitro cultured cells or xenograft tumors were lysed 1× Cell Lysis Buffer (Cell Signaling Technology, #9803), resolved by SDS-PAGE NuPAGE gel (Thermo Fisher Scientific), and transferred to a PVDF membrane (Bio Rad). For chemiluminescence immunoblotting, membranes were blocked for 1 h using 5% Blotting-Grade Blocker (#1706404, Bio Rad) in 1× Tris-buffered saline with Tween 20 (TBST, Pierce). Antibodies used were: rabbit mAbs for STAT3 (Cell Signaling Technology, #4368, #12640) and p-STAT3 (Y705) (Cell Signaling Technology, #9245, #52075). HRP conjugated goat anti-rabbit IgG (H+L) (#A27036) secondary antibodies was from Thermo Fisher Scientific. GAPDH (Santa Cruz Technology, sc-47724HRP) and actin (Santa Cruz Technology, sc-8432HRP, sc-47778HRP) were loading controls. For fluorescent immunoblotting, membranes were blocked using Odyssey TBS Blocker Buffer (LI-COR). IRDye 680RD and 800CW Dye-labeled secondary antibodies (LI-COR) were used. The washed membranes were scanned using Odyssey CLx imager (LI-COR). The intensity of Western blot signaling was quantitated using the Odyssey software."}, "STAT3 [2]": {"molecular_target": "T2, STAT3 (Homo sapiens, UniProt P40763)", "T2 sequence (P40763 whole entry)": "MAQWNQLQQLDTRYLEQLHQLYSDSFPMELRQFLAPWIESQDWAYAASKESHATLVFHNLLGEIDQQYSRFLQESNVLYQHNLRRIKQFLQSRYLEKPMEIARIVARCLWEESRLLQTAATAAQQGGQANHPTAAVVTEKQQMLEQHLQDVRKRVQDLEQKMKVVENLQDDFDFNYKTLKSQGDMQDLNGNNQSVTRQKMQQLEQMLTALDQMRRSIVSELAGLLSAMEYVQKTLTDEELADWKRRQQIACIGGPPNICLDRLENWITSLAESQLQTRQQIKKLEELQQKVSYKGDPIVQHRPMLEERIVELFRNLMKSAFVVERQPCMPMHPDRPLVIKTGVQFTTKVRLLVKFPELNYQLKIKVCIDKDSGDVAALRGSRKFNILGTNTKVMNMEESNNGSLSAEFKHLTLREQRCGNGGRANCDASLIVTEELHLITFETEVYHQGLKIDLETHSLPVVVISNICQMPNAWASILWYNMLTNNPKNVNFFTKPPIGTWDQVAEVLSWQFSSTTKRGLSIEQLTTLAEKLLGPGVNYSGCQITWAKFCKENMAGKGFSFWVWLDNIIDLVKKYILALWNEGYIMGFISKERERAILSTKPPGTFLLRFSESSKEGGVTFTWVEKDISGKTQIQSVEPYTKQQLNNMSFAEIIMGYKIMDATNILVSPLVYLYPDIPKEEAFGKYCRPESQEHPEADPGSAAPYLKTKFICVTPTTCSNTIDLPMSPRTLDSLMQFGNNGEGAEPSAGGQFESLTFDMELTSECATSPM", "assay": "Western blotting of total STAT1, STAT2, STAT3, STAT4, STAT5 and STAT6 protein in SU-DHL-1 and SUP-M2 cells", "parameters": "endogenous in cells", "procedure": "FIG. 11 is an image showing the Western blotting analysis of total STAT1, STAT2, STAT3, STAT4, STAT5, and STAT6 protein in SU-DHL-1 and SUP-M2 cells treated with Cpd. Nos. 36 and 37. Cpd.\nas §1"}, "STAT3 [3]": {"molecular_target": "T2, STAT3", "assay": "Western blotting of total STAT1, STAT2, STAT3, STAT5 and STAT6 protein in Molm-16 cells", "parameters": "endogenous in cells; host or cells: MOLM-16", "procedure": "FIG. 10 is an image showing the Western blotting analysis of total STAT1, STAT2, STAT3, STAT5, and STAT6 protein in Molm-16 cells treated with Cpd. No. 36. Cpd.\nas §1"}},
  "data": [
    {"smiles": "NC(=O)CC[C@H](NC(=O)[C@@H]1CC[C@@H]2CCN(C(=O)CCCCCC#Cc3cccc4c3CN(C3CCC(=O)NC3=O)C4=O)C[C@H](NC(=O)c3cc4cc(C(F)(F)P(=O)(O)O)ccc4[nH]3)C(=O)N21)C(=O)NC(c1ccccc1)c1ccccc1", "note": "(stereo partly drawn) [Cpd. No. 36, ((2-(((5S,8S,10aR)-8-(((S)-5-amino-1-(benzhydrylamino)-1,5-dioxopentan-2-yl)carbamoyl)-3-(8-(2-(2,6-dioxopiperidin-3-yl)-1-oxoisoindolin-4-yl)oct-7-ynoyl)-6-oxodecahydropyrrolo[1,2-a][1,5]diazocin-5-yl)carbamoyl)-1H-indol-5-yl)difluoromethyl)phosphonic Acid]", "values": [
      {"measurement": "cell growth inhibition", "setting": "[1]", "value": "inhibits cell growth"},
      {"measurement": "degradation of mutated STAT3 protein (Western blot)", "setting": "mutated STAT3 proteins", "value": "degrades mutated STAT3 proteins"},
      {"measurement": "selectivity of STAT3 degradation over other STAT members (Western blot)", "setting": "STAT3 [2]", "value": "specifically degrades STAT3 protein over other STAT members"},
      {"measurement": "selectivity of STAT3 degradation over other STAT members (Western blot)", "setting": "STAT3 [3]", "value": "specifically degrades STAT3 protein over other STAT members"}
    ]}
  ]
}
